Toxic doses and inconclusive results are not listed. Rule for the calls: active = survival T/C of 150% or more; inactive = T/C below 125% in these data.
Test system: CD2F1 mice, L1210 leukemia ip, survival T/C
Assay: NCI In Vivo Anticancer Drug Screen. Data for tumor model L1210 Leukemia (intraperitoneal) in CD2F1 (CDF1) mice
Details: endpoint: mean survival time, schedule: Q01DX005 (ip), vehicle: distilled water + Tween-80, higher = longer survival
How it was run: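 Ratio T/C, where T is the treated-group value and C the vehicle-dosed control value, from mice implanted with a transplantable tumor.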

Measured: T/C

CC(=O)NC1=CC(OC(C)=O)C(COC(C)=O)OC1n1cnc2c1c(=O)n(C)c(=O)n2C (centres undefined)
inactive: dose: 12.5 mg/kg/injection 93 % of control | dose: 25.0 mg/kg/injection 88 % of control | dose: 50.0 mg/kg/injection 88 % of control | dose: 200.0 mg/kg/injection 88 % of control

— PubChem BioAssay AID256 (DTP/NCI, 2004)
